What all share (assay): biochemical
Common to all, as to set-up: KINOMEscan competition binding, DNA-tagged kinase against immobilised ligand, qPCR read-out
Conditions in all cases: read-out: Percent Control
On the technique in general: Real-time PCR tracks product formation cycle by cycle.

Assay [1] deals with CAMKK2 (Homo sapiens, UniProt Q96RR4).
Assay [2] concerns the target CDKL2 (Homo sapiens, UniProt Q92772).
In assay [3] the target is CHEK1 (Homo sapiens, UniProt O14757).
The target in assay [4] is CSNK1G1 (Homo sapiens, UniProt Q9HCP0).
Assay [5] has as its target HIPK2 (Homo sapiens, UniProt Q9H2X6).
Assay [6] addresses IGF1R (Homo sapiens, UniProt P08069).
For assay [7], the target named is MAP3K12 (Homo sapiens, UniProt Q12852).
The target in assay [8] is MAP3K2 (Homo sapiens, UniProt Q9Y2U5).
In assay [9] the target is MAPK15 (Homo sapiens, UniProt Q8TD08).
Assay [10] addresses MELK (Homo sapiens, UniProt Q14680).
Assay [11] has as its target NLK (Homo sapiens, UniProt Q9UBE8).
In assay [12] the target is PAK3 (Homo sapiens, UniProt O75914).
The target in assay [13] is PIP4K2C (Homo sapiens, UniProt Q8TBX8).
For assay [14], the target named is RIOK2 (Homo sapiens, UniProt Q9BVS4).
The target in assay [15] is T1, RPS6KA5(Kin.Dom.2-C-terminal) (Homo sapiens, UniProt O75582).
T1 construct: Kin.Dom.2 C-terminal

The target in assay [16] is T2, RSK3(Kin.Dom.2-C-terminal) (Homo sapiens, UniProt Q15349).
T2 construct: gene RPS6KA2; Kin.Dom.2 C-terminal

The target of assay [17] is SGK3 (Homo sapiens, UniProt Q96BR1).
Assay [18] concerns the target SIK2 (Homo sapiens, UniProt Q9H0K1).
In assay [19] the target is STK4 (Homo sapiens, UniProt Q13043).
The target in assay [20] is ULK3 (Homo sapiens, UniProt Q6PHR2).

The structures appear in SMILES notation.

MAP3K2, sequence (Q9Y2U5 whole entry): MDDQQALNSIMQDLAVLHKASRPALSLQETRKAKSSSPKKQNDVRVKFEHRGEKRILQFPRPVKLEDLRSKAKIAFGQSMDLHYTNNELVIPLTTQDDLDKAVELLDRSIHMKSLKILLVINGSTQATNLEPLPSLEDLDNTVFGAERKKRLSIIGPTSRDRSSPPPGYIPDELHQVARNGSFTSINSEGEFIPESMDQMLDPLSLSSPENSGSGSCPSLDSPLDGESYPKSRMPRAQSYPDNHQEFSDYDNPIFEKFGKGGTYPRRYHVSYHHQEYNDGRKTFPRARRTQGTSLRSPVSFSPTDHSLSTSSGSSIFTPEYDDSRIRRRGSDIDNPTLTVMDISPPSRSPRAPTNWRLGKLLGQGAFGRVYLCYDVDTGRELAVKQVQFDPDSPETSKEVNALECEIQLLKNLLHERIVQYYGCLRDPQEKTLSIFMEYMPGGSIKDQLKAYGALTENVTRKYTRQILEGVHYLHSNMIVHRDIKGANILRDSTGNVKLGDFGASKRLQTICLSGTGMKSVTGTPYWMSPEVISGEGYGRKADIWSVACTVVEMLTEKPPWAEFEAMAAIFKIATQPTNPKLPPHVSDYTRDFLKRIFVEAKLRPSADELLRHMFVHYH
CAMKK2, sequence (Q96RR4 whole entry): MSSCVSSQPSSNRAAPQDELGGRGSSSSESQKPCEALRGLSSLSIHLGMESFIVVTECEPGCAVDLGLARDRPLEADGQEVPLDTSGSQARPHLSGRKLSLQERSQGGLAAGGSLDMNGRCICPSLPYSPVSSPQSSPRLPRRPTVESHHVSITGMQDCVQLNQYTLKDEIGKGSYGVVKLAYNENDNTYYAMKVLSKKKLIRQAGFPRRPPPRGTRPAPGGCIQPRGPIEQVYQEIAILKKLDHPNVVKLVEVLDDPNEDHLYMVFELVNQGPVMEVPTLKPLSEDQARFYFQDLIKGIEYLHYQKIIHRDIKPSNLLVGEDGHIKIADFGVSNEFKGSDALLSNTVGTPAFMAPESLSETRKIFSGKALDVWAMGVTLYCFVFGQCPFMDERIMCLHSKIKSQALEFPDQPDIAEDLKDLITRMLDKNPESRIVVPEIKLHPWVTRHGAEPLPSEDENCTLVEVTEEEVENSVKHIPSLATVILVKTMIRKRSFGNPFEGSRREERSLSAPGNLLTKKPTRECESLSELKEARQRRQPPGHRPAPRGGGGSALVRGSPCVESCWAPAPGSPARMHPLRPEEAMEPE
SGK3, sequence (Q96BR1 whole entry): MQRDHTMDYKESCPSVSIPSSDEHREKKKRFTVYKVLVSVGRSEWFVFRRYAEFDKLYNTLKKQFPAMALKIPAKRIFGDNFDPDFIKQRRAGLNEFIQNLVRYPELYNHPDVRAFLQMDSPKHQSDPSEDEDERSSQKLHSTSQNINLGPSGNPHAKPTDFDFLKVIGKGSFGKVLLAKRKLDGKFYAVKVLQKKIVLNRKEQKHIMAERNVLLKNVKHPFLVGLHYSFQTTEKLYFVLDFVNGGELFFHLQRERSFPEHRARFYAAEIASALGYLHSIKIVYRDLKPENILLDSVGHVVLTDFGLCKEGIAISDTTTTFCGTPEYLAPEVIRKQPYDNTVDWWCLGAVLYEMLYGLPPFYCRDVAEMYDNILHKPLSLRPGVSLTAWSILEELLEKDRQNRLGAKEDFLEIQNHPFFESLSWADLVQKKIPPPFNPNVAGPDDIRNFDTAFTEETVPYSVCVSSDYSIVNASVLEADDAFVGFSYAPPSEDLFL
MAPK15, sequence (Q8TD08 whole entry): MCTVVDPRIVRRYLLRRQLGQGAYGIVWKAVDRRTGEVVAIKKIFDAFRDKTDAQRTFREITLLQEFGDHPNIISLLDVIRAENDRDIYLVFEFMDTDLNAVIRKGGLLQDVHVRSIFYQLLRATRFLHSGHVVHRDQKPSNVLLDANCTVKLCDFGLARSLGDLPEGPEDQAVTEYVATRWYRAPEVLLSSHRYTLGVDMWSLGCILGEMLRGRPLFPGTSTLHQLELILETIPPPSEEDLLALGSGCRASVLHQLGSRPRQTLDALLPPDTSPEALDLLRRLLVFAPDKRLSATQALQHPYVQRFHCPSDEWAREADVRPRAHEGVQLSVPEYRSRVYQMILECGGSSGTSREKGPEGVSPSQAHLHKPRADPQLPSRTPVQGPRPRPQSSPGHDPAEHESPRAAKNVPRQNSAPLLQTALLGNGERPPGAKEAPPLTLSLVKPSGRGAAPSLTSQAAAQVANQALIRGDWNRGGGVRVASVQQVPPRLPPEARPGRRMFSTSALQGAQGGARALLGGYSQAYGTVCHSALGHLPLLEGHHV
CDKL2, sequence (Q92772 whole entry): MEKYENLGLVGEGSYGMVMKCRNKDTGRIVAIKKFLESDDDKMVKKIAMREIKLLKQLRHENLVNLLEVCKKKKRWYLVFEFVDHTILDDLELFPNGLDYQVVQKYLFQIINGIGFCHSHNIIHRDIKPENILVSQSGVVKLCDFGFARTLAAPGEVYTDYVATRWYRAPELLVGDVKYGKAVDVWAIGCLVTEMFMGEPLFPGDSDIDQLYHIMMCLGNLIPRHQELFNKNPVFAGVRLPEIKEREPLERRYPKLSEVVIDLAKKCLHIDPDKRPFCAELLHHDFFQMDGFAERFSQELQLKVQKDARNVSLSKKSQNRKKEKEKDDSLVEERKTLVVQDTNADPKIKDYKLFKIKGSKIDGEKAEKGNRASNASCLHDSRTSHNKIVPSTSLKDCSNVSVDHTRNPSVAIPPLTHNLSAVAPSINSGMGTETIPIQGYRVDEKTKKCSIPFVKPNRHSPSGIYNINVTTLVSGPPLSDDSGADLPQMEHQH
PIP4K2C, sequence (Q8TBX8 whole entry): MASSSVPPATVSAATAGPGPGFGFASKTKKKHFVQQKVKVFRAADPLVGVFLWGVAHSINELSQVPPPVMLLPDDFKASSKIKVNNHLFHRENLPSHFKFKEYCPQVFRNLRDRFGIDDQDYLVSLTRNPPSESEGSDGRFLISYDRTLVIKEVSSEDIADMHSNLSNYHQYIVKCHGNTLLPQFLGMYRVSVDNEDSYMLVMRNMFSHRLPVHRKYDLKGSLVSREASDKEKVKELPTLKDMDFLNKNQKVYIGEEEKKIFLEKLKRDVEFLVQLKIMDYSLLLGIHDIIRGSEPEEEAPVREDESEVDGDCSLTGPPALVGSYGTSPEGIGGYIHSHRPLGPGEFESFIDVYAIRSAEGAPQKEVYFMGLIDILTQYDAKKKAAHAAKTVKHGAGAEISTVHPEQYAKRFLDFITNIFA
IGF1R, sequence (P08069 whole entry): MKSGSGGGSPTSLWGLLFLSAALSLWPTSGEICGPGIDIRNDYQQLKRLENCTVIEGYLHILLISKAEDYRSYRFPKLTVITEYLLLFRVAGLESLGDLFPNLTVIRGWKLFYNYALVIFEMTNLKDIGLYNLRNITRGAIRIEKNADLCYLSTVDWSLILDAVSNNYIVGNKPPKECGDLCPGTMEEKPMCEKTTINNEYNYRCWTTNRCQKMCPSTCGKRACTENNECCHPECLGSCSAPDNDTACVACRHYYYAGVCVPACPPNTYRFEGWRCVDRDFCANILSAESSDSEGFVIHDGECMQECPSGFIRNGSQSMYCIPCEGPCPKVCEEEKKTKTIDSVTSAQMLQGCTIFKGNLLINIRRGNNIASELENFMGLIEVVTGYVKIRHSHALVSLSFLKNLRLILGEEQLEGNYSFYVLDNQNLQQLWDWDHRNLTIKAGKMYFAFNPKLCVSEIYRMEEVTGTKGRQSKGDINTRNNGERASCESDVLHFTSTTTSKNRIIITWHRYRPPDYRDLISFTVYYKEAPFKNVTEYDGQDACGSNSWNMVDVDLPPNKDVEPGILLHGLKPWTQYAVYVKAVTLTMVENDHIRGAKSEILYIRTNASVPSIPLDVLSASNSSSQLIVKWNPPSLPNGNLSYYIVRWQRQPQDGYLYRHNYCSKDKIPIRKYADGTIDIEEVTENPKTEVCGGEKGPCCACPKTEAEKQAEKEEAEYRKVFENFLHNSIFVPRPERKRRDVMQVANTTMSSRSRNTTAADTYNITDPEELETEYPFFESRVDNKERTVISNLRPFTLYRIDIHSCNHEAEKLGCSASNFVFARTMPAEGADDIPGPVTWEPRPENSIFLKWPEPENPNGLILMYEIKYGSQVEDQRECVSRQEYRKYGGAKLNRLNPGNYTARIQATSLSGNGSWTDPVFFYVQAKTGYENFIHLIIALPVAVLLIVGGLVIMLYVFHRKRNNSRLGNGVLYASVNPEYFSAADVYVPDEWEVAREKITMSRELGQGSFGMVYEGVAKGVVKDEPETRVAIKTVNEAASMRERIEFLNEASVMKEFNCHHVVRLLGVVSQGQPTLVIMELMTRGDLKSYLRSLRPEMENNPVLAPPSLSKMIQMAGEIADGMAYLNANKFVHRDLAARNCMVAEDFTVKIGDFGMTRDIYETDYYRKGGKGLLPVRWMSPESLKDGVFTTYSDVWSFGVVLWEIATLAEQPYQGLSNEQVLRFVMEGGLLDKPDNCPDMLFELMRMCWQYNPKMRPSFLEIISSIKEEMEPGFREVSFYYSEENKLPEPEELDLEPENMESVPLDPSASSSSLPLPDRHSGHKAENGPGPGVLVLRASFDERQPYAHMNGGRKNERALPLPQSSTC
CHEK1, sequence (O14757 whole entry): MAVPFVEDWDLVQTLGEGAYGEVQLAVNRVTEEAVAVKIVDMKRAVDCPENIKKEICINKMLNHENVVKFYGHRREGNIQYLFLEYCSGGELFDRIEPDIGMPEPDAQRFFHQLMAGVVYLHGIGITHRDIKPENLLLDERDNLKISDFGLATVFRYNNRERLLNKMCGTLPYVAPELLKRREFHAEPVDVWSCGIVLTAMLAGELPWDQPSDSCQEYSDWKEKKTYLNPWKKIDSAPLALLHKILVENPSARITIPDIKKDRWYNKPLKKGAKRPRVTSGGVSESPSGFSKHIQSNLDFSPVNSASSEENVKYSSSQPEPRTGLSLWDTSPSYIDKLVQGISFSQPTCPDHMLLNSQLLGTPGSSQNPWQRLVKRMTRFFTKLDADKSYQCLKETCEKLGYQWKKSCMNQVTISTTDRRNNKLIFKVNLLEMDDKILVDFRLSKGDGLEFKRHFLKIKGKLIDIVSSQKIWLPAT

With `Oc1ccc(C2=Cc3ccc(O)cc3OC2)cc1` [compound 1, idronoxil], the remaining binding at 10 µM was 68% in assay [1]; 100% in assay [2]; 88% in assay [3]; 95% in assay [4]; 47% in assay [5]; 84% in assay [6]. In addition, the remaining binding at 10 µM in assay [7] worked out at 75%; in [8], 83%; in [9], 49%; in assay [10], 64%; in [11] it was 67%; in assay [12], 100%. Further, the remaining binding at 10 µM in [13] stood at 52%; in assay [14], 82%; in [15] it was 100%; in [16], 75%; in assay [17], 49%; in assay [18], 87%. For the same compound, the remaining binding at 10 µM in [19] stood at 97%; in assay [20], 78%.
